Assays:
TICAE cells [1] = experiment: Cytokine detection (Magnetic Luminex) in supernatant after irradiation, TICAE cells; type: cell-based, human
Description: TICAE and TIME cells were seeded in a 6-well plate at a density of 2.5×10^5 cells/well in 5 to 6 biological replicates. Two to three days later, cells reached 100% confluence. At 30 minutes before X-ray exposure, cells were refreshed with medium with or without 100 μM TAT-Gap19 (Genosphere Biotechnologies, Paris, France). At 24 h, 48 h, 72 h and 7 d after irradiation, the supernatant was collected. Medium was changed only for the 7 d time point experiment at the fourth day with fresh medium alone or with medium supplemented with 100 μM TAT-Gap19. For the simultaneous detection of multiple cytokines in the supernatants, the Magnetic Luminex® Assay (R&D systems, Minneapolis, […]) was used following manufacturer's instructions. Briefly, supernatants, standards and microparticles were incubated into a 96-well plate which was pre-coated with cytokine-specific antibodies. The immobilized antibodies were able to bind the cytokines of interest after 2 h incubation, then the plate was washed and incubation with a biotinylated antibody cocktail specific to the cytokines of interest was performed for 1 h. A second wash was performed to remove the unbound biotinylated antibodies. Further, a streptavidin-phycoerythrin conjugate was added to each well to bind to the biotinylated antibodies. After a final wash, the microparticles were resuspended in buffer and read using the Luminex® MAGPIX Analyzer (R&D systems, Minneapolis, […]).
In order to normalize to cell number, DAPI staining was performed for the 48 h after irradiation time point. Briefly, cells were washed with phosphate buffered saline (PBS) and fixed with 4% paraformaldehyde (PFA) for 15 minutes at room temperature. Afterwards, the cells were washed with PBS and stained with 1 μg/mL 4′,6-Diamidine-2′-phenylindole (DAPI) dissolved in 1×TBST, 0.005 g/v % TSA blocking powder (PerkinElmer, FP1012) (TNB). After one hour, cells were washed with PBS and DAPI signals were visualized with the Nikon Eclipse Ti automated inverted wide-field epifluorescence microscope equipped with a 5× magnification (Plan Fluor, numerical aperture 0.6) dry objective and a Nikon IE2000-E camera controlled by the MS Elements software. The intensity of the DAPI signals was determined with the FIJI software. Cell count for 24 h after irradiation experiment was performed by Moxi Z Mini Automated Cell Counter (ORFLO Technologies, Ketchum, Id., USA) after trypsinization. For the 72 h and 7 d post-irradiation cell counts, we used IncuCyte ZOOM™ phase contrast imaging based on 49 images taken per well with the 10× objective.

TICAE cells [2] = experiment: Senescence-associated β-galactosidase CPRG assay, TICAE cells; type: cell-based, human
Description: TICAE and TIME cells were seeded in 96 well plates at a density of 10000 cells/well in 16 replicates. Three days after, cells were at 100% confluent. At 30 minutes before X-ray exposure, the cells were refreshed with 150 μl medium alone or with medium supplemented with 100 μM TAT-Gap19 (Genosphere Biotechnologies, Paris, France). For 7 d and 9 d post irradiation experiments, the medium was refreshed once, while for 14 d post irradiation experiment the medium was refreshed twice with 200 μl medium alone or with medium supplemented with 100 μM TAT-Gap19. At 7, 9 and 14 days post irradiation, cell number was determined using an Incucyte® ZOOM life cell analysis system and related software (Essen Bioscience, Hertfordshire, United Kingdom). Afterwards, the senescence associated β-galactosidase activity in the cells was determined using the chlorophenol red β-D-galactopyranoside (CPRG) assay as described previously. The cells were washed with PBS and lysed using M-PER™ buffer (Thermo Fisher Scientific, Asse, Belgium). Subsequently, 1×CPRG substrate (2 mM Chloropenol Red β-D-galactopyranoside in CPRG assay buffer containing 50 mM KPO4, 1 mM MgCl2, pH 6) (Sigma-Aldrich, Overijse, Belgium) was added to each well and the plates incubated for 18 h at 37° C. without CO2. A CLARIOstar® microplate reader (BMG Labtech, Temse, Belgium) was used to measure the absorbance at 570 nm.

RBE4 cells = experiment: γ-H2AX counts after local 3×3 mm X-ray irradiation (irradiated and bystander zones), RBE4 cells; type: cell-based, rat; details: 1 Gy, 3 h post-irradiation, Cbx 50 μM, Gap26 161 μM, TAT-Gap19 200 μM, Xestospongin C 5 μM
Description: A defined area of the cell culture dishes were exposed to X-rays (1Gy or 20 Gy) by using a small animal radiation research platform (SARRP, Xstrahl, 220 kV, 13 mA), making use of a 3×3 mm collimator. Whole dish irradiation was done using a 10×10 cm broad-beam collimator, while localized Irradiation was performed with a 3×3 mm collimator. A Gafchromic RTQA2 film, with a sensitivity of 0.02 Gy, was placed underneath the cell dishes in order to delineate the irradiated zone.
Cells were fixed for 25 min with 4% formaldehyde (VWR) and blocked for 30 min with blocking buffer (5% normal goat serum, 1% bovine serum albumin (BSA), 0.2% Triton X-100 in PBS D+). Overnight incubation with primary antibody (1/500 anti-γ-H2AX in dilution buffer, 1/10 blocking buffer in PBS D+) was followed by a 1 h incubation with 1/400 XX-biotin-goat-anti-mouse antibody in dilution buffer, followed by a 1 h incubation with 1/400 streptavidin-alexa488 in PBS D+. Nuclei were stained with 1 μg/mL DAPI in PBS D+ for 10 min and cells were kept in PBS D+ supplemented with NaN3 at 4° C. All steps except the overnight incubation which was carried out at 4° C., were carried out at room temperature and cell cultures were rinsed thoroughly with PBS D+ between all incubation steps. Imaging was performed with an automated BD Pathway 435 imaging system (10× objective, 10×10 montage resulting in an overall image size of 8.5×6.5 mm). We then quantified the number of γ-H2AX-foci positive nuclei in the directly irradiated and bystander areas and expressed the count as a percentage relative to the number of nuclei and subtracted the percentage of background γ-H2AX signal in non-irradiated paired control cultures for each experiment. For counting γ-H2AX foci, images were thresholded to remove background pixel noise below the foci level. Where applicable, results were normalized against vehicle (bar charts with a 100% vehicle bar without statistical variability or a horizontal line).

[3] = 100 μM TAT-Gap19, 5 Gy, 72 h and 7 d p.i.

With “TAT-Gap19: connexin mimetic peptide, amino-acids 128-136 of the CL of Cx43 (SEQ ID NO: 2), Gap19 linked to TAT sequence; Cx43 hemichannel inhibitor (YGRKKRRQRRRKQIEIKKFK)” the MCP-1 readout (TICAE cells [1]; 100 μM TAT-Gap19, 0 Gy control and 0.1 Gy, 72 h p.i.) was “increased”, the “IL-8 (radiation-induced increase)” value (TICAE cells [1]; [3]) was “significantly decreased these responses” and the “MCP-1 (radiation-induced increase)” value (TICAE cells [1]; [3]) was “significantly decreased these responses”. The “VCAM-1 (radiation-induced increase)” value (TICAE cells [1]; [3]) was “significantly decreased these responses”, the “all tested inflammatory markers” value (TICAE cells [1]; 100 μM TAT-Gap19, 24 h time point) was “increased all tested markers” and the “Endothelin-1 (radiation-induced increase)” value (TICAE cells [1]; 100 μM TAT-Gap19, 7 d p.i.) was “significantly reduced these responses”. For the same substance, the “IL-11 (radiation-induced increase)” value (TICAE cells [1]; 100 μM TAT-Gap19, 7 d p.i.) was “significantly reduced these responses”, the Endothelin-1 readout (TICAE cells [1]; 100 μM TAT-Gap19, control and 0.1 Gy) was “decreased” and the “SA β-gal activity” value (TICAE cells [2]; 100 μM TAT-Gap19, 0 Gy and 5 Gy, 9 d p.i.) was “significantly reduced SA β-gal activity”. The “SA β-gal activity (radiation responses)” value (TICAE cells [2]; 100 μM TAT-Gap19, 0.1 Gy and 5 Gy, 14 d p.i.) was “significantly inhibited these responses”, the “SA β-gal activity” value (TICAE cells [2]; 100 μM TAT-Gap19, control, 0.1 Gy and 5 Gy, 7 d p.i.) was “significantly reduced SA β-gal activity” and the “γ-H2AX counts in the bystander zone (normalized to vehicle)” value (RBE4 cells) was “significantly inhibited”. For the same substance, the “γ-H2AX counts in the irradiated zone (normalized to vehicle)” value (RBE4 cells) was “significantly inhibited”.

Reference: patent US20200384072A1, “THERAPY OF IONIZING RADIATION-INDUCED DISORDERS” (SCK-CEN, priority 2019, published 2020)
